Tests used:
[1] = General observations (body weight, litter size, serum testosterone, other tissues); format: in vivo, rat
Procedure: (§1) In Vivo Procedures: Gestating outbred Sprague-Dawley and inbred Fisher mother rats from timed, pregnant colonies housed at the Washington State University Vivarium, were given intraperitoneal injections of vinclozolin (100 mg/kg/day) and methoxychlor (200 mg/kg/day) from embryonic day 8-15 (E8-E15, sperm positive vaginal smear date=E0) of gestation (F0 generation) as previously described. Gestating mothers administered vehicle, sesame oil or DMSO, served as controls. At least 6 lines (individual F0 injected females) were generated for controls and treated groups for these analyses. Male rats from control and treated groups were collected at P60-P180 for analyses. F1 treated males were bred to F1 treated females to generate the F2 treated generation and F2 treated males were bred to F2 treated females to generate the F3 generation and the F3 were bred in the same manner to generate the F4 generation. Rats for the control groups were bred in the same manner for all the generations. No inbreeding or sibling crosses were generated. The outcross group (VOC) were generated by breeding the F2 treated males with wild-type females (total of 6 litters) and reverse outcross group (RVOC) was generated by breeding F2 treated females with wild-type males (total of 3 litters). Control (n=4) and treated (n=4) male offspring from the F1 generation from Fisher strain rats were collected at P6 for DNA methylation analysis, see below. All procedures have been approved by the Washington State University Animal Care Committee. The number of animals used for replicates in the experiments (i.e. n value) are as follows for vinclozolin treatment: F1 (control 11, treated 12); F2 (control 19, treated 30); F3 (control 19, treated 26); F4 (control 10, treated 17); VOC (18); and RVOC (6). For methoxychlor treatment animal number was for F1 (control 6, treated 9) and F2 (control 16, treated 22).

male rats = conditions: rat, in vivo
Procedure: as §1
Histology: Tissues were fixed in Bouin's (Amresco, Solon Ohio) and embedded in paraffin, and then sections stained with hematoxylin and eosin, according to standard procedures. The n=50 treated vinclozolin, n=42 controls.

E16 testis = assay: Microarray gene expression analysis of embryonic testis; format: in vivo, rat; conditions: F1 and F2 generation E16 testis vs control
From the text: Microarray analysis: RNA was collected from embryonic day […] 16 (E16) testis from control and E16 vinclozolin F1 and F2 generation animals as described above for Example I. RNA was hybridized to the Affymetrix (Affymetrix, Santa Clara, Calif.) rat 230A gene chip. The Genomics Core in the Center for Reproductive Biology at Washington State University, Pullman, Wash., performed the analysis as previously described, and incorporated by reference herein [149, 150]. Briefly, RNA from the cells was reverse transcribed into cDNA then was transcribed into biotin labeled RNA. Biotin labeled RNA was then hybridized to the Affymetrix rat 230A gene chips. Each gene set is composed of 16 pairs of […] oligonucleotides, with one sense strand specific for the gene and one anti-sense strand with single point mutations for use as a comparative negative control. Biotinalated RNA was then visualized by labeling with phycoerythrin-coupled avidin. The microarray was scanned on a Hewlett-Packard Gene Array Scanner (Hewlett-Packard Co., Palo Alto, Calif.).
Bioinformatics: The majority of the data analysis was performed using the Affymetrix Microarray Suite Software (Affymetrix, Santa Clara, Calif.). […] Basic expression analysis was determined by accessing the Affymetrix database through the Microarray Suite Software. […]

## C=CC1(C)OC(=O)N(c2cc(Cl)cc(Cl)c2)C1=O (stereo not drawn) [vinclozolin]
[1]; all the animals
  serum testosterone levels: normal
[1]; rat, in vivo
  effect on total body weight: no effect
  gross abnormality in any other tissues examined: No gross abnormality
  litter size, newborn pup weights or testis weight per body weight: no change
Male rats; male
  animals that developed a dramatic decrease in spermatogenic capacity: approximately 20%
  animals with infertility associated with small testis and severely reduced spermatogenesis: 4 animals
  transgenerational animals that developed complete infertility: 8%
Male rats
  histology of the testis, control versus treated: similar
  infertility in outcrossed (VOC) males: increased infertility
  infertility in reverse outcross (RVOC): no infertility
E16 testis
  expression of Fadd, Pbm1b, Rps12 and Waspip: increased expression
  expression of ankyrin 28, Ncstn, Rab12 and Lrrn6a: reduced expression
